This is an account of results in patent publication US20050119276A1, “Methods of treating inflammatory bowel disease using NF-kB inhibitors” (Wyeth, priority 2003, published 2005).

One data set relates to immature female rats. Kind of data set: Effect on uterine wet weights in immature female rats. The format is in vivo, rat. How it is done: Animals were treated once per day by gavage for three days. Following euthanasia on day four (24 h after the last dose) the uteri were removed, stripped of remaining fat and mesentery and weighed. The dose of the compound of example 3 chosen (50 mg/kg) was 500 fold higher than the efficacious dose in the above experiments.

Data set [1] relates to HLA-B27 rats. As to the kind of experiment: Stool character in the HLA rat standard pharmacological test procedure. The format is in vivo. As for the experimental part:
(§1) A representative NF-kB selective ER ligand was evaluated in the HLA rat standard pharmacological test procedure, which emulates inflammatory bowel disease in humans. The following briefly describes the procedure used and results obtained. Male HLA-B27 rats were obtained from Taconic and provided unrestricted access to a food (PMI Lab diet 5001) and water. At the start of the study, rats were 22-26 weeks old.
(§2) Rats were dosed orally once per day for 5 days with one of the regimens listed below. There were five rats in each group and the last dose was administered two hours before euthanasia. • vehicle (50% DMSO/50% Dulbecco's PBS) • 17α-ethinyl-17β-estradiol (EE, 10 μg/kg) • Compound A (150 μg/kg) • Compound A (50 μg/kg) • Compound A (1.5 μg/kg) Stool quality was observed daily and graded according to the following scale: Diarrhea=3; soft stool=2; normal stool=1. At the end of the study, serum was collected and stored at −70° C. A section of colon was prepared for histological analysis and an additional segment was analyzed for myeloperoxidase activity.

Data set [2] has as its system HLA-B27 rats. Kind of data set: Myeloperoxidase activity in colon of HLA-B27 rats (neutrophil infiltration). The format is in vivo, rat. How it is done:
as §1
Rats were dosed orally once per day for 5 days with one of the regimens listed below. […] A section of colon was prepared for histological analysis and an additional segment was analyzed for myeloperoxidase activity.
Myeloperoxidase activity [Bradley, et al., Blood 60: 618-622 (1982)]. Myeloperoxidase activity was assessed as a measure of neutrophil infiltration into the colon. […]
Tissue was resuspended and homogenized in 2.5ml (1:5 w/v) of 50 mM H2KPO4 with 10 mM EDTA and 0.5% Hex Ammonium Bromide to help solubilize the intracellular MPO. […] The supernatant was analyzed following these steps.
The test mixture was prepared by adding 2.9 ml of 50 mM H2KPO4 with 0.167 O-Dianisidine/ml with 0.0005% H2O2 into a reaction tube. […] OD was measured every 2 minutes reaction time at 460 nm against a blank containing 2.9 ml of the reaction mixture and 100 μl of the 0.5% ammonium bromide solution. […]

The subject of data set [3] is HLA-B27 rats. Kind of data set: Histological scoring of disease severity in the colon of HLA-B27 rats. The format is in vivo, rat. The note with it: for Fibrosis (0-2) / Inflammation (0-3) / Lesion depth (0-2) / Total score / Ulceration (0-2): histological score, colon. How it is done:
as §1, §2
Histological analysis. Colonic tissue was immersed in 10% neutral buffered formalin. Each specimen of colon was separated into four samples for evaluation. The formalin-fixed tissues were processed in a Tissue Tek vacuum infiltration processor (Miles, Inc; West Haven, Conn.) for paraffin embedding. The samples were sectioned at 5 μm and then stained with hematoxylin and eosin (H&E) for blinded histologic evaluations using a scale modified after Boughton-Smith. Sections of colonic tissue were evaluated for several disease indicators and given relative scores. After the scores were completed the samples were unblinded, and data were tabulated and analyzed by ANOVA linear modeling with multiple mean comparisons.

Setting [4] is: 1.5 mcg/kg orally once per day for 5 days.
Where [5] appears, read: 50 mcg/kg orally once per day for 5 days.
Where [6] appears, read: 150 mcg/kg orally once per day for 5 days.

Take `C#C[C@]1(O)CC[C@H]2[C@@H]3CCc4cc(O)ccc4[C@H]3CC[C@@]21C` [17α-ethinylestradiol, 17α-ethinyl-17β-estradiol, reference compound]: the Uterine wet weight entry with immature female rats (1.5 μg/kg (EC80)) was “significantly stimulated”.
By melting point is commonly meant the temperature of the solid-liquid transition. `CC1c2cc(F)ccc2-c2ccccc2N1S(=O)(=O)c1ccc(O)cc1` (centres unmarked) [Example 3, 4-[(8-Fluoro-6-methylphenanthridin-5(6H)-yl)sulfonyl]phenol] had a melting point of 188 °C. For the same compound, the Stool score entry in the data set with HLA-B27 rats [1] (1.5 μg/kg oral) is “No effect”. Further, the Stool score entry in the data set on HLA-B27 rats [1] (50 μg/kg oral) is reported as “No effect”. In the data set on HLA-B27 rats [1] (150 μg/kg oral, after 4 days of treatment), the Stool score result is reported as “improvement in stool score”. For the same compound, in the data set with immature female rats (50 mg/kg orally once per day for three days), the Uterine wet weight result is given as “no increase”. Further, the “MPO activity in colon” value in the data set with HLA-B27 rats [2] (150 μg/kg oral) is reported as “effectively inhibit MPO activity”. The “MPO activity in colon” value with HLA-B27 rats [2] (the lower doses (50 and 1.5 μg/kg) oral) is recorded as “no effect”. Besides, the “All disease parameters measured (ulcerations, lesions, fibrosis, inflammatory cells), colon histology” value with HLA-B27 rats [3] (50 μg/kg oral) is reported as “significantly improved”. Also, the “All disease parameters measured (ulcerations, lesions, fibrosis, inflammatory cells), colon histology” value in the data set on HLA-B27 rats [3] (150 μg/kg oral) was “significantly improved”. In the data set on HLA-B27 rats [3] (setting [4]), the “Fibrosis (0-2)” value is given as 0.94 ± 0.52, the “Inflammation (0-3)” value turned out to be 2.50 ± 0.35, the “Lesion depth (0-2)” value stood at 1.1 ± 0.35 and the Total score is listed as 5.75 ± 1.41. Further, in the data set on HLA-B27 rats [3] (setting [4]), the “Ulceration (0-2)” value is reported as 1.25 ± 0.24. Also, in the data set with HLA-B27 rats [3] (setting [5]), the “Fibrosis (0-2)” value came out at 0.38 ± 0.32, the “Inflammation (0-3)” value came out at 1.69 ± 0.52, the “Lesion depth (0-2)” value is recorded as 0.56 ± 0.24 and the Total score is given as 3.25 ± 1.0. Further, the “Ulceration (0-2)” value in the data set with HLA-B27 rats [3] (setting [5]) is 0.63 ± 0.25. Further, in the data set with HLA-B27 rats [3] (setting [6]), the “Fibrosis (0-2)” value amounted to 0.19 ± 0.24, the “Inflammation (0-3)” value turned out to be 1.50 ± 0.20, the “Lesion depth (0-2)” value amounted to 0.31 ± 0.24 and the Total score was found to be 2.38 ± 0.83. The “Ulceration (0-2)” value in the data set with HLA-B27 rats [3] (setting [6]) turned out to be 0.38 ± 0.32.
In the case of `COc1cc(OC)cc(N2CCN(C(=O)[C@](C)(C#N)[C@H](c3ccccc3OC)c3cccc4ccccc34)CC2)c1` [Example 4, (S)-3-[4-(3,5-dimethoxyphenyl)piperazin-1-yl]-2-[(S)-(2-methoxyphenyl)(1-naphthyl)methyl]-2-methyl-3-oxopropanenitrile], the melting point was 186 to 188 °C.
